Assay results from article PMC10439230 (Scientific Reports, 2023).

Legend:
[1] = test system: A549 (lung adenocarcinoma); assay: Cytotoxic activity assay (MTT); assay type: cell-based, human; settings: for IC50: Homo sapiens, A549, 48 h exposure, MTT, read-out: Cell lines, IC50 (μM) A549; for Selectivity Index (SI) values A549: SI = IC50 normal cell (MRC-5)/ IC50 cancer cell
Excerpt: (§1) The synthetic compounds were screened for their cytotoxic activity using standard MTT or XTT methods[30] against a panel of nine human cancer cell lines and one normal cell line, including MDA-MB-231 (triple-negative breast cancer), T-47D (hormone-dependent breast cancer), HepG2 (hepatocellular carcinoma), A549 (lung adenocarcinoma), H69AR (multidrug-resistant small cell lung carcinoma), HuCCA-1 (cholangiocarcinoma derived from a patient), HeLa (cervical carcinoma), and two leukemia cell lines, HL-60 (acute promyelocytic leukemia) and MOLT-3 (T cell acute lymphoblastic leukemia). MRC-5 normal embryonic lung fibroblast cell line was used to represent normal cells. Chemotherapeutic drugs, doxorubicin and etoposide, were used as positive controls.
(§2) The cells were seeded into 96-well plates (100 µL for adherent cells and 75 µL for suspended cells) at a density of 5000–20,000 cells per well, depending on their growth rates. Adherent and suspended cells were then allowed to grow at 37 °C with 95% humidity and 5% CO2 for 24 h and 30 min, respectively. The cytotoxicity assay was initiated by adding an equal volume of cell culture medium containing tested compound at predetermined concentrations. Following 48 h of exposure, cell viability was determined using MTT assay for adherent cells[51],[52]or XTT assay for suspeended cells. Briefly, for adherent cells, 100 µL of the MTT reagent was added to each well, and the microtiter plates were further incubated for 2.5–4 h. The medium was subsequently replaced with 100 µL of DMSO to dissolve the purple formazan before the absorbance at 550 nm was measured using a microplate reader (a SpectraMax Plus 384) with a reference wavelength of 650 nm. For suspended cells, 75 µL of the XTT reagent was added to each well, and the cells were further incubated for 4 h. Afterwards, the absorbance of orange formazan at 492 nm was measured with a reference wavelength of 690 nm using a microplate reader.

[2] = test system: H69AR (multidrug-resistant small cell lung carcinoma); assay: Cytotoxic activity assay (MTT); assay type: cell-based, human; settings: for IC50: Homo sapiens, H69AR, 48 h exposure, MTT, read-out: Cell lines, IC50 (μM) H69AR; for Selectivity Index (SI) values H69AR: SI = IC50 normal cell (MRC-5)/ IC50 cancer cell
Excerpt: as §1, §2

[3] = test system: HeLa (cervical carcinoma); assay: Cytotoxic activity assay (MTT); assay type: cell-based, human; settings: for IC50: Homo sapiens, 48 h exposure, MTT, read-out: Cell lines, IC50 (μM) HeLa; for Selectivity Index (SI) values HeLa: SI = IC50 normal cell (MRC-5)/ IC50 cancer cell
Excerpt: as §1, §2

[4] = test system: HepG2 (hepatocellular carcinoma); assay: Cytotoxic activity assay (MTT); assay type: cell-based, human; settings: for IC50: Homo sapiens, HepG2, 48 h exposure, MTT, read-out: Cell lines, IC50 (μM) HepG2; for Selectivity Index (SI) values HepG2: SI = IC50 normal cell (MRC-5)/ IC50 cancer cell
Excerpt: as §1, §2

[5] = test system: HuCCA-1 (cholangiocarcinoma derived from a patient); assay: Cytotoxic activity assay (MTT); assay type: cell-based, human; settings: for IC50: Homo sapiens, HuCC-A1, 48 h exposure, MTT, read-out: Cell lines, IC50 (μM) HuCCA-1; for Selectivity Index (SI) values HuCCA-1: SI = IC50 normal cell (MRC-5)/ IC50 cancer cell
Excerpt: as §1, §2

[6] = test system: MDA-MB-231 (triple-negative breast cancer); assay: Cytotoxic activity assay (MTT); assay type: cell-based, human; settings: for IC50: Homo sapiens, MDA-MB-231, 48 h exposure, MTT, read-out: Cell lines, IC50 (μM) MDA-MB-231; for Selectivity Index (SI) values MDA-MB-231: SI = IC50 normal cell (MRC-5)/ IC50 cancer cell
Excerpt: as §1, §2

[7] = test system: T-47D (hormone-dependent breast cancer); assay: Cytotoxic activity assay (MTT); assay type: cell-based, human; settings: for IC50: Homo sapiens, T47D, 48 h exposure, MTT, read-out: Cell lines, IC50 (μM) T47-D; for Selectivity Index (SI) values T47-D: SI = IC50 normal cell (MRC-5)/ IC50 cancer cell
Excerpt: as §1, §2

[8] = test system: HL-60 (acute promyelocytic leukemia); assay: Cytotoxic activity assay (XTT); assay type: cell-based, human; settings: for IC50: Homo sapiens, HL-60, 48 h exposure, XTT, read-out: Cell lines, IC50 (μM) HL-60; for Selectivity Index (SI) values HL-60: SI = IC50 normal cell (MRC-5)/ IC50 cancer cell
Excerpt: as §1, §2

[9] = test system: MOLT-3 (T cell acute lymphoblastic leukemia); assay: Cytotoxic activity assay (XTT); assay type: cell-based, human; settings: for IC50: Homo sapiens, MOLT-3, 48 h exposure, XTT, read-out: Cell lines, IC50 (μM) MOLT-3; for Selectivity Index (SI) values MOLT-3: SI = IC50 normal cell (MRC-5)/ IC50 cancer cell
Excerpt: as §1, §2

[10] = test system: MRC-5 normal embryonic lung fibroblast cell line; assay: Cytotoxic activity assay (MTT), normal cells; assay type: cell-based; settings: Homo sapiens, MRC5, 48 h exposure, read-out: Cell lines, IC50 (μM) MRC-5
Excerpt: as §1, §2

| SMILES | IC50 [1] [µM] | Selectivity Index (SI) values A549 [1] | IC50 [2] [µM] | Selectivity Index (SI) values H69AR [2] | IC50 [3] [µM] | Selectivity Index (SI) values HeLa [3] | IC50 [4] [µM] | Selectivity Index (SI) values HepG2 [4] | IC50 [5] [µM] | Selectivity Index (SI) values HuCCA-1 [5] | IC50 [6] [µM] | Selectivity Index (SI) values MDA-MB-231 [6] | IC50 [7] [µM] | Selectivity Index (SI) values T47-D [7] | IC50 [8] [µM] | Selectivity Index (SI) values HL-60 [8] | IC50 [9] [µM] | Selectivity Index (SI) values MOLT-3 [9] | IC50 [10] [µM] |
| --- | --- | --- | --- | --- | --- | --- | --- | --- | --- | --- | --- | --- | --- | --- | --- | --- | --- | --- | --- |
| C=C1CC[C@H]2C(C)(C)CCC[C@]2(C)[C@H]1CC/C(C)=C/C(=O)Nc1ccccc1 [Compound 4e, (E)-3-Methyl-N-phenyl-5-((1S,4aS,8aS)-5,5,8a-trimethyl-2-methylene-decahydronaphthalen-1-yl)pent-2-enamide] | 46.9 ± 1.28 | 2.8 | > 120 | 1.0 | 98.11 ± 0.08 | 1.3 | > 120 | 1.0 | > 120 | 1.0 | > 120 | 1.0 | > 120 | 1.0 | 60.6 ± 4.97 | 2.2 | 25.9 ± 1.88 | 5.1 | > 120 |
| C=C1CC[C@H]2C(C)(C)CCC[C@]2(C)[C@H]1CC/C(C)=C/C(=O)NCc1ccccc1 [Compound 4f, (E)-N-Benzyl-3-methyl-5-((1S,4aS,8aS)-5,5,8a-trimethyl-2-methylene-decahydronaphthalen-1-yl)pent-2-enamide] | > 120 | 1.0 | > 120 | 1.0 | > 120 | 1.0 | > 120 | 1.0 | > 120 | 1.0 | > 120 | 1.0 | > 120 | 1.0 | 87.3 ± 8.47 | 1.5 | > 120 | 1.0 | > 120 |
| C=C1CC[C@H]2C(C)(C)CCC[C@]2(C)[C@H]1CC/C(C)=C/C(=O)NCc1ccccn1 [Compound 4g, (E)-3-Methyl-N-(pyridin-2-ylmethyl)-5-((1S,4aS,8aS)-5,5,8a-trimethyl-2-methylenedecahydronaphthalen-1-yl)pent-2-enamide] | 38.2 ± 0.49 | 1.2 | 92.7 ± 1.18 | 0.5 | 46.7 ± 1.03 | 1.0 | 41.7 ± 1.46 | 1.1 | 46.2 ± 0.6 | 1.0 | 35.1 ± 0.98 | 1.3 | 55.1 ± 2.8 | 0.8 | 22.7 ± 0.36 | 2.0 | 20.9 ± 0.99 | 2.1 | 44.8 ± 1.62 |
| C=C1CC[C@H]2C(C)(C)CCC[C@]2(C)[C@H]1CC/C(C)=C/C(=O)NCCc1c[nH]c2ccccc12 [Compound 4h, (E)-N-(2-(1H-Indol-3-yl)ethyl)-3-methyl-5-((1S,4aS,8aS)-5,5,8a-trimethyl-2-methylenedecahydronaphthalen-1-yl)pent-2-enamide] | 41.4 ± 2.48 | 1.2 | 71.5 ± 2.47 | 0.7 | 20.7 ± 0.4 | 2.3 | 40.5 ± 2.25 | 1.2 | 42.4 ± 0.5 | 1.1 | 23.5 ± 0.36 | 2.1 | > 120 | 0.4 | 16.8 ± 0.61 | 2.9 | 17.1 ± 0.57 | 2.8 | 48.2 ± 1.06 |
| C=C1CC[C@H]2C(C)(C)CCC[C@]2(C)[C@H]1CC/C(C)=C/C(=O)NOC [Compound 4i, (E)-N-Methoxy-3-methyl-5-((1S,4aS,8aS)-5,5,8a-trimethyl-2-methylene-decahydronaphthalen-1-yl)pent-2-enamide] | 45.7 ± 0.63 | 1.2 | 96.91 ± 0.46 | 0.5 | 53.8 ± 0.83 | 1.0 | 44.26 ± 0.4 | 1.2 | 49.8 ± 0.18 | 1.1 | 45 ± 0.86 | 1.2 | 41.3 ± 1.61 | 1.3 | 24.9 ± 0.45 | 2.1 | 21.4 ± 1.29 | 2.5 | 52.68 ± 0.03 |
| C=C1CC[C@H]2C(C)(C)CCC[C@]2(C)[C@H]1CC/C(C)=C/C(=O)NO [Compound 4j, (E)-N-Hydroxy-3-methyl-5-((1S,4aS,8aS)-5,5,8a-trimethyl-2-methylene-decahydronaphthalen-1-yl)pent-2-enamide] | > 120 | 1.0 | > 120 | 1.0 | > 120 | 1.0 | > 120 | 1.0 | > 120 | 1.0 | > 120 | 1.0 | > 120 | 1.0 | > 120 | 1.0 | > 120 | 1.0 | > 120 |
| C=C1CC[C@H]2C(C)(C)CCC[C@]2(C)[C@H]1CC/C(C)=C/C(=O)NN [Compound 4k, (E)-3-Methyl-5-((1S,4aS,8aS)-5,5,8a-trimethyl-2-methylenedecahydro-naphthalen-1-yl)pent-2-enehydrazide] | > 120 | 0.9 | > 120 | 0.9 | 118.78 ± 0.06 | 1.2 | > 120 | 0.9 | 130 ± 2 | 1.1 | 98.5 ± 3.01 | 1.5 | > 120 | 0.9 | 108 ± 1.53 | 1.4 | 29.3 ± 2.43 | 5.0 | 145.8 ± 0.34 |
| C=C1CC[C@H]2C(C)(C)CCC[C@]2(C)[C@H]1CC/C(C)=C/C(=O)N(C)C [Compound 4m, (E)-N,N,3-Trimethyl-5-((1S,4aS,8aS)-5,5,8a-trimethyl-2-methylenedecahydro-naphthalen-1-yl)pent-2-enamide] | 51.82 ± 0.25 | 0.8 | 99.97 ± 0.74 | 0.4 | 40.1 ± 0.68 | 1.0 | 52.1 ± 2.82 | 0.8 | 44.31 ± 0.42 | 0.9 | 32.1 ± 1.68 | 1.3 | 42.6 ± 1.08 | 1.0 | 19.4 ± 0.84 | 2.1 | 21.3 ± 0.47 | 1.9 | 40.8 ± 0.56 |
